Laboratory results reported in patent publication US10617695B2, “Ophthalmic compositions containing alcaftadine” (Vistakon Pharmaceuticals, LLC, priority 2006, dated 2020).
Entries after “also recorded” stand apart in the source; their conditions may differ.

How the values were obtained:
[1] = system: ZO-1; experiment: Integrity of conjunctival epithelium after conjunctival allergen challenge: ZO-1 expression (confocal microscopy); format: in vivo, mice
Protocol: (§1) To investigate the ability of alcaftadine to maintain the integrity of conjunctival epithelium, changes in the expression of the tight junction proteins ZO-1 and E-cadherin (an induction for E-cadherin and qualitative change-from focal to diffuse for ZO-1) were evaluated following specific conjunctival allergen challenge. These changes are associated with an increased permeability of the conjunctival and other epithelial tissues. This in vivo experiment examined what effect alcaftadine (topical administration 1 and 2 hours pre-challenge) had on the modulation of these proteins.
(§2) Mice were sensitized with short ragweed (SRW) in aluminum hydroxide via intraperitoneal administration (Day 0, 7, and 15) and eye drop instillation (Day 8 and 15). On Day 20, mice were further sensitized with eye drops containing only SRW. On Day 27, the mice were treated topically with either 5 μL alcaftadine or vehicle at 1 and 2 hours prior to challenge. SRW was instilled topically to both eyes. The expression of these proteins in naive eyes were also monitored. Changes in the expression of the tight junction proteins ZO-1 and E-cadherin were observed 1-hour post conjunctival allergen challenge with SRW. The proteins were detected using FITC-conjugated monoclonal antibodies specific for ZO-1 and E-cadherin and were visualized by confocal microscopy (Ziess). […]

[2] = system: murine model of allergic conjunctivitis; experiment: Vascular leak (Evans Blue Dye Extravasation) in murine model of allergic conjunctivitis, early phase; format: in vivo, mice; conditions: alcaftadine 2.5 mg/ml, 5 μL topical at 1 and 2 hours pre-challenge; p<0.05
Protocol: (§3) Alcaftadine ophthalmic solution was evaluated to determine if topical treatment could reduce early phase and late phase allergic inflammation in a murine model of allergic conjunctivitis. Evans Blue Dye Leakage was used to assess the impact on vascular permeability during the early phase inflammatory response Conjunctiva was taken at 24 hours, stained, and assessed for presence of neutrophil and eosinophil infiltration to evaluate late phase anti-inflammatory activity.
(§4) All mice were sensitized with short ragweed (SRW) in aluminum hydroxide via intraperitoneal administration (Day 0, 7, and 14) and eye drop instillation (Day 8 and 15). On Day 20, mice were again sensitized with eye drops of SRW.
(§5) On Day 27, two topical administrations of the clinical dose of alcaftadine 2.5 mg/ml or vehicle were instilled at 1 and 2 hours pre-challenge. Alcaftadine and vehicle were administered topically at a 5 μL saturating dose as treatment arms based on a randomization code. […]
(§6) Vascular leak was determined by means of Evans Blue Dye Extravasation following allergen challenge for N=6 animals except the alcaftadine treatment arm, where N=4 animals were sacrificed and tested (two animals died during the procedure). […] The numbers of eosinophils and neutrophils were determined both by light microscopy of Giemsa or H&E stained sections or by immunohistochemistry using cell specific monoclonal antibodies. […]

[3] = system: E-cadherin; experiment: Integrity of conjunctival epithelium after conjunctival allergen challenge: E-cadherin expression (confocal microscopy); format: in vivo, mice
Protocol: as §1, §2

[4] = Chemical stability of alcaftadine solution in ethylene oxide sterilized LDPE bottles; format: physicochemical
Protocol: Both non-sterilized Rexam and Bunder Glas bottles were sterilized using ethylene oxide. Stability studies were initiated and ethylene oxide levels determined to be <1 ppm (under ambient conditions) using a water extraction test method (ANSI/AAMI/ISO: 10993-7) by AppTec (Marietta, Ga.).
The 2.5 mg/ml alcaftadine solution was used in this study.
The chemical stability results for alcaftadine stored in ethylene oxide sterilized Rexam and Bunder Glas bottles are summarized in Table 4.

[5] = system: murine model of allergic conjunctivitis; experiment: Eosinophil and neutrophil recruitment 24 hours post-CAC in murine model of allergic conjunctivitis, late phase; format: in vivo, mice; conditions: alcaftadine 2.5 mg/ml, 5 μL topical at 1 and 2 hours pre-challenge
Protocol: as §3, §4, §5, §6

[6] = system: guinea pigs systemically sensitized to rabbit skin squames and topically challenged with rabbit allergens; experiment: Anti-allergic activity against acute-phase allergic conjunctivitis (edema and erythema) in sensitized guinea pigs; format: in vivo, guinea pig
Protocol: The effect of alcaftadine against acute-phase reactions of allergic conjunctivitis (edema and erythema) was compared to the effect of other known anti-allergens in guinea pigs that were systemically sensitized to rabbit skin squames and topically challenged 17 days later with rabbit allergens.
Anesthetized male albino guinea pigs (Dunkin-Hartley) weighing about 230 to 250 g were injected intramuscularly at the left quadriceps with 50 μl of purified rabbit allergens. The rabbit allergens consisted of Al(OH)3-adsorbed rabbit squames (Halab, Brussels, Belgium), which had been homogenized and washed clean of preservative (0.5% (V/V) phenol) with sterile physiologic saline.
Alcaftadine was […] administered to each eye in dosages ranging from 0.005 mg/kg to 1.0 mg/kg at 24 hours and 1 hour before challenge. Other test compounds included oxatomide, ketotifen, astemizole, cetirizine, loratadine and terfenadine, administered at dosages of 0.1 mg/kg and 1.0 mg/kg.
At day 17 post sensitization the left eye was challenged by instilling 25 μl of 100% normal rabbit serum. At the same time as the allergen challenge, the right eye was instilled with 25 μl of 1.5 mg/ml histamine dihydrochloride (98%, Sigma) dissolved in deionised, Millipore-filtered water.
Thirty minutes after challenge, edema and erythema were assessed in the tarsal and bulbar conjunctiva of both eyes and scored as absent (0), weak (1), moderate (2), severe (3), or very severe (4) by a trained technician.

[7] = Systemic (plasma) levels of alcaftadine in patients; format: in vivo, human; conditions: for Mean Cmax: plasma, 0.25% ophthalmic solution bilaterally
Protocol: Patients were bilaterally dosed with 0.25% ophthalmic solutions of alcaftadine for seven days. The plasma levels of those patients was assessed pre-dose, and 0.25, 0.5, 1, 1.5, 2, 3, 4, 6, 8, 12, and 18 hour post medication instillation on days one and seven. Plasma concentrations of Alcaftadine reached Cmax rapidly and declined to below the lower limit of quantification (0.01 ng/mL) by 3 hours post dosing.

[8] = 5 μL topical at 1 and 2 hours prior to challenge, 1-hour post challenge
[9] = following specific conjunctival allergen challenge
[10] = Bunder Glas bottles, Ethylene Oxide, 5 days at 50° C.
[11] = Bunder Glas bottles, Ethylene Oxide, 14 days at 50° C.
[12] = Rexam bottles, Ethylene Oxide, 5 days at 50° C.
[13] = Rexam bottles, Ethylene Oxide, 14 days at 50° C.

CN1CCC(=C2c3ccccc3CCn3c(C=O)cnc32)CC1 [Alcaftadine, 6,11-dihydro-11-(1-methyl-4-piperidinylidene)-5H-imidazo[2,1-b][3]benzazepine-3-carboxaldehyde]
ZO-1 staining, alcaftadine treatment versus naive (negative control) [1, 8]: no or minimal difference
integrity of conjunctival epithelial tight junctions (focal ZO-1 expression) [1, 9]: maintains the integrity of conjunctival epithelial tight junctions
vascular leak compared to vehicle [2]: successfully preventing vascular leakage; also recorded: did significantly inhibit vascular leak
E-cadherin staining, alcaftadine treatment versus naive (negative control) [3, 8]: no or minimal difference
induction of E-cadherin expression [3, 9]: inhibits the induction of E-cadherin expression
N-oxide levels in ethylene oxide sterilized Bunder Glas bottles versus gamma irradiated bottles ([4]; 14 days of storage at 50° C. under ambient light conditions): significantly lower N-oxide levels
Alcaftadine [4, 10]: 2.46 mg/mL
N-Oxide [4, 10]: 0.052%
Alcaftadine [4, 11]: 2.48 mg/mL
N-Oxide [4, 11]: 0.074%
Alcaftadine ([4]; Glass Vials, 5 days at 50° C.): 2.48 mg/mL
N-Oxide ([4]; Glass Vials, 5 days at 50° C.): 0.022%
Alcaftadine ([4]; Glass Vials, 14 days at 50° C.): 2.51 mg/mL
N-Oxide ([4]; Glass Vials, 14 days at 50° C.): 0.028%
Alcaftadine [4, 12]: 2.50 mg/mL
N-Oxide [4, 12]: 0.018%
Alcaftadine [4, 13]: 2.58 mg/mL
N-Oxide [4, 13]: 0.025%
eosinophil or neutrophil recruitment in the late phase response [5]: did not prevent eosinophil or neutrophil recruitment
eosinophil or neutrophil recruitment in the late phase response ([5]; listed as alcaftadine): does not appear to inhibit eosinophil or neutrophil recruitment
dose from which acute allergic symptoms were significantly alleviated ([6]; dosed 24 hours and 1 hour before challenge, edema and erythema scored 30 minutes after challenge): 0.1 mg/kg
potency compared with astemizole, cetirizine and loratadine ([6]; on an equivalent mg/kg basis): significantly more potent
potency compared with oxatomide, ketotifen and terfenadine ([6]; on an equivalent mg/kg basis): more potent
maximum plasma concentrations ([7]; all subjects): less than 0.12 ng/mL
Mean Cmax ([7]; Day 1): 0.051 ng/mL
Mean Cmax ([7]; Day 7): 0.060 ng/mL
time by which plasma concentrations declined to below the lower limit of quantification ([7]; post dosing, lower limit of quantification 0.01 ng/mL): ≤ 3 h
